Measured values as given in patent US7118895B2, “Process for producing aglycon by using diglycosidase and flavor-improved food containing the aglycon and converting agent to be used in the process” (Amano Enzyme Inc., priority 2000, dated 2006).

Tested on: Crude diglycosidase
Assay: Examination of pH in the conversion into isoflavone aglycons by diglycosidase using soybean materials
Type: biochemical, Penicillium multicolor IAM7153
Design: Decomposition efficiency of genistin family in soymilk / Decomposition efficiency of genistin family in defatted soybean / Decomposition efficiency of daidzin family in defatted soybean: concentration or dose not given beside the values
Settings: for Decomposition efficiency of genistin family in roasted soy flour: 55° C.
How it was run: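 HPLC readout: isoflavone glycosides vs aglycons. Substrates: 50 mg soy material (roasted flour, soymilk, defatted bean, concentrated protein), pH 2–11 (HCl/NaOH). Crude diglycosidase solution 1.88 AU/mL, matched pH; 55° C; quenched with ethanol at 0/1/3/6 h; centrifuged 15,000 rpm, 4° C, 10 min.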

[1] = pH4.8, heat treatment of enzyme: no, reaction time 0 h
[2] = pH4.8, heat treatment of enzyme: no, reaction time 1 h
[3] = pH4.8, heat treatment of enzyme: no, reaction time 3 h
[4] = pH4.8, heat treatment of enzyme: no, reaction time 6 h
[5] = pH4.8, heat treatment of enzyme: yes, reaction time 6 h
[6] = pH6.6, heat treatment of enzyme: no, reaction time 0 h
[7] = pH6.6, heat treatment of enzyme: no, reaction time 1 h
[8] = pH6.6, heat treatment of enzyme: no, reaction time 3 h
[9] = pH6.6, heat treatment of enzyme: no, reaction time 6 h
[10] = pH6.6, heat treatment of enzyme: yes, reaction time 6 h

## O=C(O)CC(=O)OC[C@H]1O[C@@H](Oc2cc(O)c3c(=O)c(-c4ccc(O)cc4)coc3c2)[C@H](O)[C@@H](O)[C@@H]1O [malonylgenistin, 6″-O-malonylgenistin]
pH1.6, heat treatment of enzyme: no, reaction time 0 h
  Decomposition efficiency of genistin family in concentrated soybean protein: not detected
pH1.6, heat treatment of enzyme: no, reaction time 1 h
  Decomposition efficiency of genistin family in concentrated soybean protein: not detected
pH1.6, heat treatment of enzyme: no, reaction time 3 h
  Decomposition efficiency of genistin family in concentrated soybean protein: not detected
pH1.6, heat treatment of enzyme: no, reaction time 6 h
  Decomposition efficiency of genistin family in concentrated soybean protein: not detected
pH1.6, heat treatment of enzyme: yes, reaction time 6 h
  Decomposition efficiency of genistin family in concentrated soybean protein: not detected
pH2, heat treatment of enzyme no, reaction time 0 h
  Decomposition efficiency of genistin family in roasted soy flour: not detected
pH2, heat treatment of enzyme no, reaction time 1 h
  Decomposition efficiency of genistin family in roasted soy flour: not detected
pH2, heat treatment of enzyme no, reaction time 3 h
  Decomposition efficiency of genistin family in roasted soy flour: not detected
pH2, heat treatment of enzyme no, reaction time 6 h
  Decomposition efficiency of genistin family in roasted soy flour: not detected
pH2, heat treatment of enzyme yes, reaction time 6 h
  Decomposition efficiency of genistin family in roasted soy flour: not detected
pH2.3, heat treatment of enzyme: no, reaction time 0 h
  Decomposition efficiency of genistin family in soymilk: 58.2%
pH2.3, heat treatment of enzyme: no, reaction time 1 h
  Decomposition efficiency of genistin family in soymilk: 57.5%
pH2.3, heat treatment of enzyme: no, reaction time 3 h
  Decomposition efficiency of genistin family in soymilk: 54.1%
pH2.3, heat treatment of enzyme: no, reaction time 6 h
  Decomposition efficiency of genistin family in soymilk: 52.1%
pH2.3, heat treatment of enzyme: yes, reaction time 6 h
  Decomposition efficiency of genistin family in soymilk: 54.3%
pH2.6, heat treatment of enzyme: no, reaction time 0 h
  Decomposition efficiency of genistin family in defatted soybean: 43.8%
pH2.6, heat treatment of enzyme: no, reaction time 1 h
  Decomposition efficiency of genistin family in defatted soybean: 44.4%
pH2.6, heat treatment of enzyme: no, reaction time 3 h
  Decomposition efficiency of genistin family in defatted soybean: 45.4%
pH2.6, heat treatment of enzyme: no, reaction time 6 h
  Decomposition efficiency of genistin family in defatted soybean: 43.5%
pH2.6, heat treatment of enzyme: yes, reaction time 6 h
  Decomposition efficiency of genistin family in defatted soybean: 42.0%
pH2.7, heat treatment of enzyme: no, reaction time 0 h
  Decomposition efficiency of genistin family in concentrated soybean protein: not detected
pH2.7, heat treatment of enzyme: no, reaction time 1 h
  Decomposition efficiency of genistin family in concentrated soybean protein: not detected
pH2.7, heat treatment of enzyme: no, reaction time 3 h
  Decomposition efficiency of genistin family in concentrated soybean protein: not detected
pH2.7, heat treatment of enzyme: no, reaction time 6 h
  Decomposition efficiency of genistin family in concentrated soybean protein: not detected
pH2.7, heat treatment of enzyme: yes, reaction time 6 h
  Decomposition efficiency of genistin family in concentrated soybean protein: not detected
pH3, heat treatment of enzyme no, reaction time 0 h
  Decomposition efficiency of genistin family in roasted soy flour: not detected
pH3, heat treatment of enzyme no, reaction time 1 h
  Decomposition efficiency of genistin family in roasted soy flour: not detected
pH3, heat treatment of enzyme no, reaction time 3 h
  Decomposition efficiency of genistin family in roasted soy flour: not detected
pH3, heat treatment of enzyme no, reaction time 6 h
  Decomposition efficiency of genistin family in roasted soy flour: not detected
pH3, heat treatment of enzyme yes, reaction time 6 h
  Decomposition efficiency of genistin family in roasted soy flour: not detected
pH3.4, heat treatment of enzyme: no, reaction time 0 h
  Decomposition efficiency of genistin family in defatted soybean: 43.8%
pH3.4, heat treatment of enzyme: no, reaction time 1 h
  Decomposition efficiency of genistin family in defatted soybean: 41.6%
pH3.4, heat treatment of enzyme: no, reaction time 3 h
  Decomposition efficiency of genistin family in defatted soybean: 36.4%
pH3.4, heat treatment of enzyme: no, reaction time 6 h
  Decomposition efficiency of genistin family in defatted soybean: 30.4%
pH3.4, heat treatment of enzyme: yes, reaction time 6 h
  Decomposition efficiency of genistin family in defatted soybean: 39.8%
pH3.5, heat treatment of enzyme: no, reaction time 0 h
  Decomposition efficiency of genistin family in soymilk: 58.2%
pH3.5, heat treatment of enzyme: no, reaction time 1 h
  Decomposition efficiency of genistin family in soymilk: 27.9%
pH3.5, heat treatment of enzyme: no, reaction time 3 h
  Decomposition efficiency of genistin family in soymilk: 7.5%
pH3.5, heat treatment of enzyme: no, reaction time 6 h
  Decomposition efficiency of genistin family in soymilk: 2.7%
pH3.5, heat treatment of enzyme: yes, reaction time 6 h
  Decomposition efficiency of genistin family in soymilk: 52.7%
pH3.7, heat treatment of enzyme: no, reaction time 0 h
  Decomposition efficiency of genistin family in concentrated soybean protein: not detected
pH3.7, heat treatment of enzyme: no, reaction time 1 h
  Decomposition efficiency of genistin family in concentrated soybean protein: not detected
pH3.7, heat treatment of enzyme: no, reaction time 3 h
  Decomposition efficiency of genistin family in concentrated soybean protein: not detected
pH3.7, heat treatment of enzyme: no, reaction time 6 h
  Decomposition efficiency of genistin family in concentrated soybean protein: not detected
pH3.7, heat treatment of enzyme: yes, reaction time 6 h
  Decomposition efficiency of genistin family in concentrated soybean protein: not detected
pH4, heat treatment of enzyme no, reaction time 0 h
  Decomposition efficiency of genistin family in roasted soy flour: not detected
pH4, heat treatment of enzyme no, reaction time 1 h
  Decomposition efficiency of genistin family in roasted soy flour: not detected
pH4, heat treatment of enzyme no, reaction time 3 h
  Decomposition efficiency of genistin family in roasted soy flour: not detected
pH4, heat treatment of enzyme no, reaction time 6 h
  Decomposition efficiency of genistin family in roasted soy flour: not detected
pH4, heat treatment of enzyme yes, reaction time 6 h
  Decomposition efficiency of genistin family in roasted soy flour: not detected
[1]
  Decomposition efficiency of genistin family in defatted soybean: 43.2%
  Decomposition efficiency of genistin family in soymilk: 58.6%
[2]
  Decomposition efficiency of genistin family in defatted soybean: 42.8%
  Decomposition efficiency of genistin family in soymilk: 41.0%
[3]
  Decomposition efficiency of genistin family in defatted soybean: 37.5%
  Decomposition efficiency of genistin family in soymilk: 23.9%
[4]
  Decomposition efficiency of genistin family in defatted soybean: 31.1%
  Decomposition efficiency of genistin family in soymilk: 11.3%
[5]
  Decomposition efficiency of genistin family in defatted soybean: 41.7%
  Decomposition efficiency of genistin family in soymilk: 51.9%
pH5, heat treatment of enzyme no, reaction time 0 h
  Decomposition efficiency of genistin family in roasted soy flour: not detected
pH5, heat treatment of enzyme no, reaction time 1 h
  Decomposition efficiency of genistin family in roasted soy flour: not detected
pH5, heat treatment of enzyme no, reaction time 3 h
  Decomposition efficiency of genistin family in roasted soy flour: not detected
pH5, heat treatment of enzyme no, reaction time 6 h
  Decomposition efficiency of genistin family in roasted soy flour: not detected
pH5, heat treatment of enzyme yes, reaction time 6 h
  Decomposition efficiency of genistin family in roasted soy flour: not detected
pH5.1, heat treatment of enzyme: no, reaction time 0 h
  Decomposition efficiency of genistin family in concentrated soybean protein: not detected
pH5.1, heat treatment of enzyme: no, reaction time 1 h
  Decomposition efficiency of genistin family in concentrated soybean protein: not detected
pH5.1, heat treatment of enzyme: no, reaction time 3 h
  Decomposition efficiency of genistin family in concentrated soybean protein: not detected
pH5.1, heat treatment of enzyme: no, reaction time 6 h
  Decomposition efficiency of genistin family in concentrated soybean protein: not detected
pH5.1, heat treatment of enzyme: yes, reaction time 6 h
  Decomposition efficiency of genistin family in concentrated soybean protein: not detected
pH5.4, heat treatment of enzyme: no, reaction time 0 h
  Decomposition efficiency of genistin family in defatted soybean: 43.2%
pH5.4, heat treatment of enzyme: no, reaction time 1 h
  Decomposition efficiency of genistin family in defatted soybean: 48.0%
pH5.4, heat treatment of enzyme: no, reaction time 3 h
  Decomposition efficiency of genistin family in defatted soybean: 44.6%
pH5.4, heat treatment of enzyme: no, reaction time 6 h
  Decomposition efficiency of genistin family in defatted soybean: 39.7%
pH5.4, heat treatment of enzyme: yes, reaction time 6 h
  Decomposition efficiency of genistin family in defatted soybean: 45.8%
pH6.2, heat treatment of enzyme: no, reaction time 0 h
  Decomposition efficiency of genistin family in soymilk: 58.6%
pH6.2, heat treatment of enzyme: no, reaction time 1 h
  Decomposition efficiency of genistin family in soymilk: 52.6%
pH6.2, heat treatment of enzyme: no, reaction time 3 h
  Decomposition efficiency of genistin family in soymilk: 41.2%
pH6.2, heat treatment of enzyme: no, reaction time 6 h
  Decomposition efficiency of genistin family in soymilk: 35.8%
pH6.2, heat treatment of enzyme: yes, reaction time 6 h
  Decomposition efficiency of genistin family in soymilk: 51.5%
pH6.5, heat treatment of enzyme no, reaction time 0 h
  Decomposition efficiency of genistin family in roasted soy flour: not detected
pH6.5, heat treatment of enzyme no, reaction time 1 h
  Decomposition efficiency of genistin family in roasted soy flour: not detected
pH6.5, heat treatment of enzyme no, reaction time 3 h
  Decomposition efficiency of genistin family in roasted soy flour: not detected
pH6.5, heat treatment of enzyme no, reaction time 6 h
  Decomposition efficiency of genistin family in roasted soy flour: not detected
pH6.5, heat treatment of enzyme yes, reaction time 6 h
  Decomposition efficiency of genistin family in roasted soy flour: not detected
[6]
  Decomposition efficiency of genistin family in concentrated soybean protein: not detected
  Decomposition efficiency of genistin family in defatted soybean: 47.1%
[7]
  Decomposition efficiency of genistin family in concentrated soybean protein: not detected
  Decomposition efficiency of genistin family in defatted soybean: 50.1%
[8]
  Decomposition efficiency of genistin family in concentrated soybean protein: not detected
  Decomposition efficiency of genistin family in defatted soybean: 48.3%
[9]
  Decomposition efficiency of genistin family in concentrated soybean protein: not detected
  Decomposition efficiency of genistin family in defatted soybean: 46.1%
[10]
  Decomposition efficiency of genistin family in concentrated soybean protein: not detected
  Decomposition efficiency of genistin family in defatted soybean: 45.7%
pH7.2, heat treatment of enzyme: no, reaction time 0 h
  Decomposition efficiency of genistin family in soymilk: 57.0%
pH7.2, heat treatment of enzyme: no, reaction time 1 h
  Decomposition efficiency of genistin family in soymilk: 56.9%
pH7.2, heat treatment of enzyme: no, reaction time 3 h
  Decomposition efficiency of genistin family in soymilk: 51.5%
pH7.2, heat treatment of enzyme: no, reaction time 6 h
  Decomposition efficiency of genistin family in soymilk: 46.4%
pH7.2, heat treatment of enzyme: yes, reaction time 6 h
  Decomposition efficiency of genistin family in soymilk: 51.1%
pH7.8, heat treatment of enzyme: no, reaction time 0 h
  Decomposition efficiency of genistin family in defatted soybean: 45.8%
pH7.8, heat treatment of enzyme: no, reaction time 1 h
  Decomposition efficiency of genistin family in defatted soybean: 46.6%
pH7.8, heat treatment of enzyme: no, reaction time 3 h
  Decomposition efficiency of genistin family in defatted soybean: 44.4%
pH7.8, heat treatment of enzyme: no, reaction time 6 h
  Decomposition efficiency of genistin family in defatted soybean: 42.2%
pH7.8, heat treatment of enzyme: yes, reaction time 6 h
  Decomposition efficiency of genistin family in defatted soybean: 39.9%
pH8.5, heat treatment of enzyme no, reaction time 0 h
  Decomposition efficiency of genistin family in roasted soy flour: not detected
pH8.5, heat treatment of enzyme no, reaction time 1 h
  Decomposition efficiency of genistin family in roasted soy flour: not detected
pH8.5, heat treatment of enzyme no, reaction time 3 h
  Decomposition efficiency of genistin family in roasted soy flour: not detected
pH8.5, heat treatment of enzyme no, reaction time 6 h
  Decomposition efficiency of genistin family in roasted soy flour: not detected
pH8.5, heat treatment of enzyme yes, reaction time 6 h
  Decomposition efficiency of genistin family in roasted soy flour: not detected
pH8.6, heat treatment of enzyme: no, reaction time 0 h
  Decomposition efficiency of genistin family in concentrated soybean protein: not detected
pH8.6, heat treatment of enzyme: no, reaction time 1 h
  Decomposition efficiency of genistin family in concentrated soybean protein: not detected
pH8.6, heat treatment of enzyme: no, reaction time 3 h
  Decomposition efficiency of genistin family in concentrated soybean protein: not detected
pH8.6, heat treatment of enzyme: no, reaction time 6 h
  Decomposition efficiency of genistin family in concentrated soybean protein: not detected
pH8.6, heat treatment of enzyme: yes, reaction time 6 h
  Decomposition efficiency of genistin family in concentrated soybean protein: not detected
pH11.6, heat treatment of enzyme: no, reaction time 0 h
  Decomposition efficiency of genistin family in soymilk: 54.2%
pH11.6, heat treatment of enzyme: no, reaction time 1 h
  Decomposition efficiency of genistin family in soymilk: 57.7%
pH11.6, heat treatment of enzyme: no, reaction time 3 h
  Decomposition efficiency of genistin family in soymilk: 52.6%
pH11.6, heat treatment of enzyme: no, reaction time 6 h
  Decomposition efficiency of genistin family in soymilk: 49.5%
pH11.6, heat treatment of enzyme: yes, reaction time 6 h
  Decomposition efficiency of genistin family in soymilk: 47.7%
